Our source for the TGI values is PubChem BioAssay (NCI).

Among the test systems are XF 498 CNS; OVCAR-8 ovarian; LXFL 529 NSCLC; DMS 273 small cell lung; SNB-78 CNS; SF-268 CNS; DMS 114 small cell lung; DLD-1 colon; HOP-18 NSCLC; RXF-631 renal; M19-MEL melanoma; KM20L2 colon.
Holding throughout (assay): growth of human tumour cells (NCI), 48 h

Molecules are shown by their SMILES.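 Values below derive from 48-hour exposures of cells grown in 96-well plates, with endpoints linearly interpolated between the two concentrations bracketing the appropriate inhibition level. TGI marks complete inhibition of growth.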

On to `COc1cc2c[n+](C)c3c4cc5c(cc4ccc3c2cc1OC)OCO5`, for which the TGI with XF 498 CNS was 9.95 µM; in the experiment on OVCAR-8 ovarian it was 29.9 µM; in the experiment on LXFL 529 NSCLC it was 4.67 µM; in the experiment with DMS 273 small cell lung, 11.6 µM; in the experiment on SNB-78 CNS it was more than 25.9 µM; in the experiment on SF-268 CNS it was 39.4 µM. Further, the TGI was 5.92 µM with DMS 114 small cell lung; more than 31.6 µM with DLD-1 colon; 93.6 µM in the experiment on HOP-18 NSCLC; more than 100 µM in the experiment with RXF-631 renal; 2.9 µM with M19-MEL melanoma; 3.47 µM in the experiment with KM20L2 colon.
On to `COC(=O)C(C)NP(=O)(N1CC1)N1CC1` (configuration not stated), for which the TGI in the experiment on XF 498 CNS, with OVCAR-8 ovarian, with LXFL 529 NSCLC, in the experiment on DMS 273 small cell lung, in the experiment on SNB-78 CNS and in the experiment with SF-268 CNS was more than 100 µM each time. The TGI in the experiment with DMS 114 small cell lung, in the experiment with DLD-1 colon, in the experiment with RXF-631 renal and in the experiment on KM20L2 colon was more than 100 µM each time.
